Results: PubChem BioAssay (NCI)
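Following 48 hours of exposure in 96-well plates, responses at five concentrations were used to interpolate endpoints linearly. TGI marks complete inhibition of growth.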

Experiments:
Assay in all cases: NCI tumour cell line growth inhibition, 48 h
SK-MEL-28 melanoma = system: SK-MEL-28 melanoma
XF 498 CNS = system: XF 498 CNS
SF-539 CNS = system: SF-539 CNS
K-562 leukemia = system: K-562 leukemia
HOP-18 NSCLC = system: HOP-18 NSCLC
DLD-1 colon = system: DLD-1 colon
HT29 colon = system: HT29 colon
KM12 colon = system: KM12 colon
MOLT-4 leukemia = system: MOLT-4 leukemia
HOP-62 NSCLC = system: HOP-62 NSCLC
OVCAR-4 ovarian = system: OVCAR-4 ovarian
IGROV1 ovarian = system: IGROV1 ovarian
CAKI-1 renal = system: CAKI-1 renal
DMS 114 small cell lung = system: DMS 114 small cell lung
SNB-78 CNS = system: SNB-78 CNS
OVCAR-5 ovarian = system: OVCAR-5 ovarian
SK-MEL-2 melanoma = system: SK-MEL-2 melanoma
M19-MEL melanoma = system: M19-MEL melanoma
SF-268 CNS = system: SF-268 CNS
SNB-19 CNS = system: SNB-19 CNS
SR leukemia = system: SR leukemia
TK-10 renal = system: TK-10 renal
OVCAR-8 ovarian = system: OVCAR-8 ovarian
SK-MEL-5 melanoma = system: SK-MEL-5 melanoma
UO-31 renal = system: UO-31 renal
HL-60(TB) leukemia = system: HL-60(TB) leukemia
M14 melanoma = system: M14 melanoma
SF-295 CNS = system: SF-295 CNS
EKVX NSCLC = system: EKVX NSCLC
U251 CNS = system: U251 CNS
HCC-2998 colon = system: HCC-2998 colon
OVCAR-3 ovarian = system: OVCAR-3 ovarian
SK-OV-3 ovarian = system: SK-OV-3 ovarian
786-0 renal = system: 786-0 renal
HCT-15 colon = system: HCT-15 colon
RXF 393 renal = system: RXF 393 renal
NCI-H23 lung = system: NCI-H23 lung
UACC-62 melanoma = system: UACC-62 melanoma
MALME-3M melanoma = system: MALME-3M melanoma
COLO 205 colon = system: COLO 205 colon
HCT-116 colon = system: HCT-116 colon
RPMI-8226 leukemia = system: RPMI-8226 leukemia
KM20L2 colon = system: KM20L2 colon
ACHN renal = system: ACHN renal
UACC-257 melanoma = system: UACC-257 melanoma
CCRF-CEM leukemia = system: CCRF-CEM leukemia
NCI-H460 lung = system: NCI-H460 lung
DMS 273 small cell lung = system: DMS 273 small cell lung
SNB-75 CNS = system: SNB-75 CNS
A498 renal = system: A498 renal
LOX IMVI melanoma = system: LOX IMVI melanoma
SN12C renal = system: SN12C renal
LXFL 529 NSCLC = system: LXFL 529 NSCLC
A549 NSCLC = system: A549 NSCLC
NCI-H226 lung = system: NCI-H226 lung
SW-620 colon = system: SW-620 colon
NCI-H522 lung = system: NCI-H522 lung
HOP-92 NSCLC = system: HOP-92 NSCLC

O=C(O)CCCCCCC[C@H]1S[C@H]1CCCCCCO
TGI (SK-MEL-28 melanoma): > 100 µM
TGI (XF 498 CNS): > 100 µM
TGI (SF-539 CNS): > 100 µM
TGI (K-562 leukemia): > 100 µM
TGI (HOP-18 NSCLC): > 100 µM
TGI (DLD-1 colon): > 100 µM
TGI (HT29 colon): > 100 µM
TGI (KM12 colon): > 100 µM
TGI (MOLT-4 leukemia): > 100 µM
TGI (HOP-62 NSCLC): > 100 µM
TGI (OVCAR-4 ovarian): > 100 µM
TGI (IGROV1 ovarian): > 100 µM
TGI (CAKI-1 renal): > 100 µM
TGI (DMS 114 small cell lung): > 100 µM
TGI (SNB-78 CNS): > 100 µM
TGI (OVCAR-5 ovarian): > 100 µM
TGI (SK-MEL-2 melanoma): > 100 µM
TGI (M19-MEL melanoma): > 100 µM
TGI (SF-268 CNS): > 100 µM
TGI (SNB-19 CNS): > 100 µM
TGI (SR leukemia): > 100 µM
TGI (TK-10 renal): > 100 µM
TGI (OVCAR-8 ovarian): > 100 µM
TGI (SK-MEL-5 melanoma): > 100 µM
TGI (UO-31 renal): > 100 µM
TGI (HL-60(TB) leukemia): > 100 µM
TGI (M14 melanoma): > 100 µM
TGI (SF-295 CNS): > 100 µM
TGI (EKVX NSCLC): > 100 µM
TGI (U251 CNS): > 100 µM
TGI (HCC-2998 colon): > 100 µM
TGI (OVCAR-3 ovarian): > 100 µM
TGI (SK-OV-3 ovarian): > 100 µM
TGI (786-0 renal): > 100 µM
TGI (HCT-15 colon): > 100 µM
TGI (RXF 393 renal): > 100 µM
TGI (NCI-H23 lung): > 100 µM
TGI (UACC-62 melanoma): > 100 µM
TGI (MALME-3M melanoma): > 100 µM
TGI (COLO 205 colon): > 100 µM
TGI (HCT-116 colon): > 100 µM
TGI (RPMI-8226 leukemia): > 100 µM

CC(C)=CC(=O)C/C(=N\NC(N)=S)C(=O)Nc1ccc(Cl)cc1
TGI (SK-MEL-28 melanoma): > 100 µM
TGI (SF-539 CNS): > 100 µM
TGI (KM20L2 colon): > 100 µM
TGI (K-562 leukemia): > 100 µM
TGI (ACHN renal): > 100 µM
TGI (HOP-18 NSCLC): > 100 µM
TGI (DLD-1 colon): > 100 µM
TGI (HT29 colon): > 100 µM
TGI (KM12 colon): > 100 µM
TGI (MOLT-4 leukemia): > 100 µM
TGI (OVCAR-4 ovarian): > 100 µM
TGI (IGROV1 ovarian): > 100 µM
TGI (CAKI-1 renal): > 100 µM
TGI (DMS 114 small cell lung): > 100 µM
TGI (UACC-257 melanoma): > 100 µM
TGI (SNB-78 CNS): > 100 µM
TGI (OVCAR-5 ovarian): > 100 µM
TGI (SK-MEL-2 melanoma): > 100 µM
TGI (CCRF-CEM leukemia): > 100 µM
TGI (M19-MEL melanoma): > 100 µM
TGI (NCI-H460 lung): > 100 µM
TGI (DMS 273 small cell lung): > 100 µM
TGI (SNB-75 CNS): > 100 µM
TGI (SF-268 CNS): > 100 µM
TGI (A498 renal): > 100 µM
TGI (SNB-19 CNS): > 100 µM
TGI (LOX IMVI melanoma): > 100 µM
TGI (TK-10 renal): > 100 µM
TGI (OVCAR-8 ovarian): > 100 µM
TGI (SK-MEL-5 melanoma): > 100 µM
TGI (UO-31 renal): > 100 µM
TGI (SN12C renal): > 100 µM
TGI (HL-60(TB) leukemia): > 100 µM
TGI (M14 melanoma): > 100 µM
TGI (SF-295 CNS): > 100 µM
TGI (EKVX NSCLC): > 100 µM
TGI (U251 CNS): > 100 µM
TGI (LXFL 529 NSCLC): > 100 µM
TGI (HCC-2998 colon): > 100 µM
TGI (OVCAR-3 ovarian): > 100 µM
TGI (SK-OV-3 ovarian): > 100 µM
TGI (786-0 renal): > 100 µM
TGI (HCT-15 colon): > 100 µM
TGI (RXF 393 renal): > 100 µM
TGI (A549 NSCLC): > 100 µM
TGI (NCI-H23 lung): > 100 µM
TGI (NCI-H226 lung): > 100 µM
TGI (SW-620 colon): > 100 µM
TGI (UACC-62 melanoma): > 100 µM
TGI (MALME-3M melanoma): > 100 µM
TGI (COLO 205 colon): > 100 µM
TGI (HCT-116 colon): > 100 µM
TGI (RPMI-8226 leukemia): > 100 µM

CC(C)CC(NC(=O)c1cccc(O)c1O)C(=O)NCc1cc(CNC(=O)C(CC(C)C)NC(=O)c2cccc(O)c2O)cc(CNC(=O)C(CC(C)C)NC(=O)c2cccc(O)c2O)c1 (stereo unspecified)
TGI (SK-MEL-28 melanoma): 68.5 µM
TGI (SF-539 CNS): 20.9 µM
TGI (KM20L2 colon): 21 µM
TGI (K-562 leukemia): > 100 µM
TGI (ACHN renal): > 100 µM
TGI (HOP-18 NSCLC): > 100 µM
TGI (DLD-1 colon): > 100 µM
TGI (HT29 colon): 30.9 µM
TGI (KM12 colon): 41.9 µM
TGI (MOLT-4 leukemia): 37.9 µM
TGI (HOP-62 NSCLC): 52.8 µM
TGI (OVCAR-4 ovarian): 56.5 µM
TGI (IGROV1 ovarian): 27.1 µM
TGI (CAKI-1 renal): > 100 µM
TGI (DMS 114 small cell lung): 18.4 µM
TGI (UACC-257 melanoma): 58.9 µM
TGI (SNB-78 CNS): > 100 µM
TGI (OVCAR-5 ovarian): 27.1 µM
TGI (SK-MEL-2 melanoma): 29 µM
TGI (CCRF-CEM leukemia): 54 µM
TGI (NCI-H522 lung): 16.8 µM
TGI (NCI-H460 lung): > 100 µM
TGI (DMS 273 small cell lung): 41.9 µM
TGI (SNB-75 CNS): 45.9 µM
TGI (SF-268 CNS): > 100 µM
TGI (A498 renal): > 100 µM
TGI (SNB-19 CNS): 47.3 µM
TGI (LOX IMVI melanoma): 25.6 µM
TGI (SR leukemia): 32.2 µM
TGI (TK-10 renal): > 100 µM
TGI (OVCAR-8 ovarian): > 100 µM
TGI (SK-MEL-5 melanoma): 30.4 µM
TGI (UO-31 renal): 70.1 µM
TGI (SN12C renal): 56.3 µM
TGI (HL-60(TB) leukemia): 19.2 µM
TGI (SF-295 CNS): 38.6 µM
TGI (EKVX NSCLC): 69.5 µM
TGI (HOP-92 NSCLC): 32 µM
TGI (U251 CNS): 29.5 µM
TGI (LXFL 529 NSCLC): 13.8 µM
TGI (HCC-2998 colon): 20.6 µM
TGI (OVCAR-3 ovarian): 19.7 µM
TGI (SK-OV-3 ovarian): 35.5 µM
TGI (786-0 renal): > 100 µM
TGI (HCT-15 colon): > 100 µM
TGI (A549 NSCLC): 50.3 µM
TGI (NCI-H23 lung): 36.1 µM
TGI (NCI-H226 lung): 60.2 µM
TGI (SW-620 colon): 61.8 µM
TGI (UACC-62 melanoma): 17.8 µM
TGI (MALME-3M melanoma): 39.5 µM
TGI (COLO 205 colon): 34.3 µM
TGI (HCT-116 colon): 38.4 µM
TGI (RPMI-8226 leukemia): 21.8 µM

CC1CCC2(CC1)NN=c1s/c(=C\c3ccc(O)cc3)c(=O)n1N2 (stereo unspecified)
TGI (SK-MEL-28 melanoma): > 100 µM
TGI (XF 498 CNS): > 100 µM
TGI (SF-539 CNS): > 100 µM
TGI (KM20L2 colon): > 100 µM
TGI (K-562 leukemia): > 100 µM
TGI (HOP-18 NSCLC): > 100 µM
TGI (DLD-1 colon): > 100 µM
TGI (HT29 colon): > 100 µM
TGI (KM12 colon): > 100 µM
TGI (MOLT-4 leukemia): > 100 µM
TGI (HOP-62 NSCLC): > 100 µM
TGI (OVCAR-4 ovarian): > 100 µM
TGI (IGROV1 ovarian): > 100 µM
TGI (DMS 114 small cell lung): > 100 µM
TGI (SNB-78 CNS): > 100 µM
TGI (CCRF-CEM leukemia): > 100 µM
TGI (M19-MEL melanoma): > 100 µM
TGI (NCI-H522 lung): > 100 µM
TGI (NCI-H460 lung): > 100 µM
TGI (DMS 273 small cell lung): > 100 µM
TGI (SNB-75 CNS): > 100 µM
TGI (SF-268 CNS): > 100 µM
TGI (SNB-19 CNS): > 100 µM
TGI (LOX IMVI melanoma): > 100 µM
TGI (TK-10 renal): > 100 µM
TGI (OVCAR-8 ovarian): > 100 µM
TGI (SK-MEL-5 melanoma): > 100 µM
TGI (SN12C renal): > 100 µM
TGI (HL-60(TB) leukemia): > 100 µM
TGI (M14 melanoma): > 100 µM
TGI (SF-295 CNS): > 100 µM
TGI (EKVX NSCLC): > 100 µM
TGI (U251 CNS): > 100 µM
TGI (LXFL 529 NSCLC): > 100 µM
TGI (HCC-2998 colon): > 100 µM
TGI (OVCAR-3 ovarian): > 100 µM
TGI (SK-OV-3 ovarian): > 100 µM
TGI (786-0 renal): > 100 µM
TGI (RXF 393 renal): > 100 µM
TGI (A549 NSCLC): > 100 µM
TGI (NCI-H23 lung): > 100 µM
TGI (NCI-H226 lung): > 100 µM
TGI (SW-620 colon): > 100 µM
TGI (UACC-62 melanoma): > 100 µM
TGI (COLO 205 colon): > 100 µM
TGI (HCT-116 colon): > 100 µM
TGI (RPMI-8226 leukemia): > 100 µM
